# According to patent publication US4898870A, “Pyrroloquinoline quinone compounds useful as an enzyme inhibitor” (Sogo Pharmaceutical Company Limited, priority 1986, dated 1990):
# Values joined by “and” are separate entries in the source; they are usually repeats but may differ in a detail not shown here. Equal values may be shown once. Where a name gives a salt, the structure may show the parent alone.
# Key:
# [1] = molecular target: T1, rat lens aldose reductase (Rattus norvegicus, UniProt P07943); assay: Inhibition of rat lens aldose reductase (NADPH2 OD decrease at 340 nm); format: biochemical; conditions: for IC50: rat lens homogenate, substrate dl-glyceraldehyde
# T1 construct: A homogenate of rat lens was used; from tissue; host or cells: rat lens (crude homogenate; in later tests the 3,000 rpm supernatant)
# Description: A homogenate of rat lens was used and the activity of aldose reductase was measured by the method of Kinoshita, et. al. (Kinoshita J. H., et al, Metabolism, 28, 462-469, (1979)).
# (§1) Specifically reaction was started by adding dl-glyceraldehyde as a substrate to a reaction solution containing rat lens homogenate, Li2 SO4, NADPH2 and inhibitor, and the enzyme activity was measured by the decrease of the optical absorption of NADPH2 (optical density: OD) at 340 nm for 5 min. The solution with no addition of the substrate was used for the blank OD. The inhibiting ratio for the aldose reductase reaction by the inhibitor was determined by the following equation: [formula]
# (§2) To a reaction solution containing the chick lens homogenate, Li2 SO4, NADPH2 and an inhibitor, was added dlglyceraldehyde as substrate to start the reaction, and the enzymatic activity was determined by measuring the decrease in optical density (OD) of NADPH2 at 340 nm after five minutes. A solution with no substrate added was used for the blank test. The inhibition rate against the aldose reductase reaction was calculated from the following equation: [formula]
# A homogenate of rat lens was centrifuged for four minutes at 3,000 rpm under cooling, the supernatant was collected as an enzyme solution, and the inhibitory action of PQQ·H2 against aldose reductase was measured in the same way as in Test Example 4.
# An enzyme solution was prepared from rat lens in the same manner as in Test Example 10, and the inhibitory action of PQQ·3Me against rat lens aldose reductase was measured in the same way as in Test Example 4.
# [2] = molecular target: T2, bovine lens aldose reductase (Bos taurus, UniProt P16116); assay: Inhibition of bovine lens aldose reductase; format: biochemical; conditions: for IC50: bovine lens enzyme; for IC100: bovine lens, read-out: concentration inhibiting the activity by 100%; for inhibition at 10 µM: inhibitor 10^-5 M/reaction soln.; for inhibition at 1 µM: inhibitor 10^-6 M/reaction soln.; for inhibition at 0.1 µM: inhibitor 10^-7 M/reaction soln.
# T2 construct: A homogenate of bovine lens was centrifuged for ten minutes at 20,000 rpm under cooling; from tissue; host or cells: bovine lens (20,000 rpm supernatant of homogenate)
# Description: as §1
# The determination of enzyme activity was same as in Test Example 1 except enzyme source was bovine lens.
# as §2
# A homogenate of bovine lens was centrifuged for ten minutes at 20,000 rpm under cooling, the supernatant was collected as an enzyme solution, and the inhibitory action of PQQ against aldose reductase was measured in the same way as in Test Example 4.
# A homogenate of bovine lens was centrifuged for ten minutes at 20,000 rpm under cooling, the supernatant was collected as an enzyme solution, and the inhibitory action of PQQ·H2 against bovine lens aldose reductase was measured in the same way as in Test Example 4.
# An enzyme solution was prepared from chick lens in the same manner as in Test Example 9, and the inhibitory action of PQQ·3Me against bovine lens aldose reductase was measured in the same way as in Test Example 4.
# [3] = molecular target: T3, human placental aldose reductase (Homo sapiens, UniProt P15121); assay: Inhibition of human placental aldose reductase; format: biochemical; conditions: for IC50: human placenta enzyme; for IC100: human placenta, read-out: concentration inhibiting the activity by 100%
# T3 construct: An enzyme solution was prepared from human placenta; from tissue; host or cells: human placenta
# Description: as §1
# The determination of enzyme activity was same as in Test Example 1 except enzyme source was human placenta.
# as §2
# An enzyme solution was prepared from human placenta, and the inhibitory action of PQQ·2K against human placental aldose reductase was measured in the same way as in Test Example 4.
# An enzyme solution was prepared from human placenta, and the inhibitory action of PQQ·3Me against human placental aldose reductase was measured in the same way as in Test Example 4.
# An enzyme solution was prepared from human placenta, and the inhibitory action of PQQ·2Me.Et against human placental aldose reductase was measured in the same way as in Test Example 4.
# [4] = system: chick lens aldose reductase; assay: Inhibition of chick lens aldose reductase; format: biochemical; conditions: for concentration inhibiting the activity by 100%: chick lens; for IC50: chick lens homogenate, read-out: concentration inhibiting the aldose reductase activity by 50%
# Description: The activity of aldose reductase was measured according to the method of Kinoshita et al. [Metabolism, 28, 462-469 (1979)] using a homogenate of chick lens.
# as §2
# An enzyme solution was prepared from chick lens in the same manner as in Test Example 4, and the inhibitory action of PQQ·H2 against aldose reductase was measured in the same way as in Test Example 4.
# An enzyme solution was prepared from chick lens in the same manner as in Test Example 4, and the inhibitory action of PQQ·3Me against aldose reductase was measured in the same way as in Test Example 4.
# [5] = system: galactose-induced cataract; assay: Galactose-induced cataract in rats; format: in vivo, Sprague-Dawley rats; conditions: for cataract estimation: number at Grade A^- / cataract estimation: number at Grade A^0: 50% galactose feed; for cataract estimation: number at Grade A^-: 7th day; for cataract estimation: number at Grade A^0: 10th day
# Description: Male, Sprague-Dawley rats weighing 55 to 65 grams were used as test animals in this experiment. These were divided into three groups (normal group, 50%-galactose feed group, and drug-administered group). The normal group was given a commercial powdery feed (CE-2 of Clea Japan Inc.), and the other two groups were given the above normal feed further containing 50% galactose, with free access thereto in all cases. To the drug-administered group, was further administered PQQ orally (30 mg/Kg) or intraperitonealy (20 mg/Kg) once a day throughout the course of test. The lens was extracted from the test animals on the 7th and 10th days after the start of experiment, and cataract estimation was made according to the following standards: […]
# [6] = system: egg cataract induced by hydrocortisone; assay: Egg cataract induced by hydrocortisone; format: in vivo, White-leghorn eggs
# Description: White-leghorn eggs were incubated in a hatcher held at a temperature of 37° C. and a relative humidity of about 70%.
# To the control and drug-administered groups, was administered at the air space 0.2 ml each of a solution of 0.12 mg hydrocortisone succinate (HC) in pure water on the 15th day after the start of incubation.
# To the drug-administered group, was further injected PQQ 2 hours, or 2 and 5 hours, after HC administration.
# The lens was extracted from each egg 48 hours after HC administration, and cataract estimation was made by the method of Nishigohri et al. [INVESTIGATIVE OPHTHALMOLOGY & VISUAL SCIENCE, 25, 1051 (1984)] according to the following standards: […]
# [7] = inhibitor 2 × 10^-6 M/reaction soln., read-out: Inhibition Rate
# [8] = inhibitor 4 × 10^-6 M/reaction soln., read-out: Inhibition Rate
# [9] = inhibitor 6 × 10^-6 M/reaction soln., read-out: Inhibition Rate
# [10] = inhibitor 8 × 10^-6 M/reaction soln., read-out: Inhibition Rate
# [11] = inhibitor 10^-6 M/reaction soln., read-out: Inhibition Rate
# [12] = inhibitor 10^-5 M/reaction soln.
# [13] = inhibitor 10^-6 M/reaction soln.
# [14] = PQQ 0.25 mg/egg × 1, HC 0.12 mg/egg, 48 hours after HC
# [15] = PQQ 0.5 mg/egg × 1, HC 0.12 mg/egg, 48 hours after HC
# [16] = PQQ 0.5 mg/egg × 2, HC 0.12 mg/egg, 48 hours after HC
# [17] = PQQ 1.0 mg/egg × 1, HC 0.12 mg/egg, 48 hours after HC
structure (smiles),measurement,setting,value
"COC(=O)c1cc(C(=O)OC)c2c(n1)C(=O)C(=O)c1cc(C(=O)OC)[nH]c1-2 [PQQ.3Me, PQQ trimethyl ester]",inhibition at 2 µM,[1]; [7],3.3%
same,inhibition at 4 µM,[1]; [8],23.5%
same,inhibition at 6 µM,[1]; [9],54.4%
same,inhibition at 8 µM,[1]; [10],98.9%
same,inhibition at 100 µM,"[1]; inhibitor 10^-4 M/reaction soln., read-out: Inhibition Rate",100%
same,inhibition at 10 µM,"[1]; inhibitor 10^-5 M/reaction soln., read-out: Inhibition Rate",100%
same,inhibition at 1 µM,[1]; [11],0%
same,IC50,[1],5800 nM
same,IC100,"[1]; rat lens, read-out: concentration inhibiting the activity by 100%",10 µM
same,concentrations at which effective,[2]; bovine lens (Table 13),≥ 10^-6 M
same,IC50,[2],4200 nM
same,IC100,[2],6 µM
same,inhibition at 2 µM,[2]; [7],22.6%
same,inhibition at 4 µM,[2]; [8],45.8%
same,inhibition at 6 µM,[2]; [9],100%
same,inhibition at 8 µM,[2]; [10],100%
same,inhibition at 10 µM,[2]; read-out: Inhibition Rate,100%
same,inhibition at 1 µM,[2]; read-out: Inhibition Rate,10%
same,inhibition at 0.1 µM,[2]; read-out: Inhibition Rate,0%
same,IC50,[3],390 nM
same,IC100,[3],2.5 µM
same,inhibition at 0.2 µM,"[3]; inhibitor 2 × 10^-7 M/reaction soln., read-out: Inhibition Rate",15%
same,inhibition at 2.5 µM,"[3]; inhibitor 2.5 × 10^-6 M/reaction soln., read-out: Inhibition Rate",100%
same,inhibition at 0.3 µM,"[3]; inhibitor 3 × 10^-7 M/reaction soln., read-out: Inhibition Rate",34.4%
same,inhibition at 0.4 µM,"[3]; inhibitor 4 × 10^-7 M/reaction soln., read-out: Inhibition Rate",50.6%
same,inhibition at 5 µM,"[3]; inhibitor 5 × 10^-6 M/reaction soln., read-out: Inhibition Rate",100%
same,inhibition at 0.5 µM,"[3]; inhibitor 5 × 10^-7 M/reaction soln., read-out: Inhibition Rate",63.9%
same,inhibition at 0.08 µM,"[3]; inhibitor 8 × 10^-8 M/reaction soln., read-out: Inhibition Rate",1.7%
same,inhibition at 0.1 µM,"[3]; inhibitor 10^-7 M/reaction soln., read-out: Inhibition Rate",10%
same,concentration inhibiting the activity by 100%,[4],8e-06 M
same,IC50,[4],3000 nM
same,Inhibition Rate,[4]; inhibitor 2 × 10^-6 M/reaction soln.,30.0%
same,Inhibition Rate,[4]; inhibitor 4 × 10^-6 M/reaction soln.,77.1%
same,Inhibition Rate,[4]; inhibitor 6 × 10^-6 M/reaction soln.,87.1%
same,Inhibition Rate,[4]; inhibitor 8 × 10^-6 M/reaction soln.,100%
same,Inhibition Rate,[4]; [12],100%
same,Inhibition Rate,[4]; [13],0%
"O=C(O)c1cc(C(=O)O)c2c(n1)C(=O)C(=O)c1cc(C(=O)O)[nH]c1-2 [PQQ, pyrroloquinoline quinone]",IC50,[2],300 nM
same,IC100,[2],1 µM
same,inhibition at 10 µM,[2]; read-out: Inhibition Rate,100%
same,inhibition at 1 µM,[2]; read-out: Inhibition Rate,100%
same,inhibition at 0.1 µM,[2]; read-out: Inhibition Rate,35.9%
same,inhibition at 0.01 µM,"[2]; inhibitor 10^-8 M/reaction soln., read-out: Inhibition Rate",0%
same,concentration inhibiting the activity by 100%,[4],10^-4 M
same,IC50,[4],5000 nM
same,Inhibition Rate,[4]; inhibitor 10^-4 M/reaction soln.,100%
same,Inhibition Rate,[4]; [12],82.1%
same,Inhibition Rate,[4]; [13],13.9%
same,Inhibition Rate,[4]; inhibitor 10^-7 M/reaction soln.,0%
same,Inhibition Rate,[4]; inhibitor 10^-8 M/reaction soln.,0%
same,cataract estimation: number at Grade A^-,[5]; 20 mg/Kg i.p. once a day,4/4
same,cataract estimation: number at Grade A^0,[5]; 20 mg/Kg i.p. once a day,2/2
same,cataract estimation: number at Grade A^-,[5]; 30 mg/Kg p.o. once a day,6/6
same,cataract estimation: number at Grade A^0,[5]; 30 mg/Kg p.o. once a day,4/4
same,nebula formation,"[5]; 50%-galactose feed for seven days, both p.o. and i.p.",no such nebula formation was observed at all
same,change of cataract grade versus 50%-galactose feed group,[5]; 50%-galactose feed over ten days,improvement by two grades
same,effect on hydrocortisone-induced egg cataract,[6]; HC 0.12 mg on 15th day of incubation,evidently showed an effect of curing cataract
same,cataract estimation: number at Grade I,[6]; [14],2/8
same,cataract estimation: number at Grade III,[6]; [14],4/8
same,cataract estimation: number at Grade IV,[6]; [14],2/8
same,cataract estimation: number at Grade I,[6]; [15],2/10
same,cataract estimation: number at Grade III,[6]; [15],8/10
same,cataract estimation: number at Grade II,[6]; [16],8/10
same,cataract estimation: number at Grade III,[6]; [16],2/10
same,cataract estimation: number at Grade I,[6]; [17],2/6
same,cataract estimation: number at Grade II,[6]; [17],2/6
same,cataract estimation: number at Grade III,[6]; [17],2/6
"O=C(O)c1cc(C(=O)O)c2c(n1)C(=O)C(=O)c1cc(C(=O)O)[nH]c1-2 [PQQ.2K, PQQ dipotassium salt]",IC50,[1],2000 nM
same,IC50,[3],1920 nM and 1900 nM
same,IC100,[3],4 µM
same,inhibition at 2 µM,[3]; [7],51.4%
same,inhibition at 3 µM,"[3]; inhibitor 3 × 10^-6 M/reaction soln., read-out: Inhibition Rate",83.3%
same,inhibition at 4 µM,[3]; [8],100%
same,inhibition at 0.9 µM,"[3]; inhibitor 9 × 10^-7 M/reaction soln., read-out: Inhibition Rate",8.3%
same,inhibition at 1 µM,[3]; [11],26.9%
